# Reference: US20250041279A1, “THERAPEUTIC MEDICINE FOR HEART DISEASE OR SKELETAL MUSCLE DISEASE” (SHIONOGI & CO., LTD., priority 2021, published 2025)
# How the values were obtained:
# [1] = Metabolic stability test, human liver microsomes; type: in vitro ADME; conditions: 37° C., 30 minutes, NADPH
# Procedure: Commercially available pooled human liver microsomes were reacted with the compound of the present invention for a given time. A residual rate was calculated by comparison between the reacted sample and the unreacted sample to evaluate a degree at which the compound of the present invention is metabolized in the liver.
# The compound was reacted at 37° C. for 0 minutes or 30 minutes in the presence of 1 mmol/L NADPH in 0.2 mL of a buffer (50 mmol/L Tris-HCl pH 7.4, 150 mmol/L potassium chloride, and 10 mmol/L magnesium chloride) containing 0.5 mg protein/mL of the human liver microsomes (oxidative reaction). After the reaction, 50 μL of the reaction solution was added to 100 μL of a solution of methanol/acetonitrile=1/1 (v/v) and mixed, and the mixture was centrifuged at 3000 rpm for 15 minutes. The compound of the present invention in the centrifuged supernatant was quantified by LC/MS/MS or solid-phase extraction (SPE)/MS. The amount of the compound of the present invention remained after the reaction was calculated with the amount of the compound at 0 minutes of the reaction defined as 100%.
# Atgl knockout mice = assay: Long-chain fatty acid metabolizing ability in Atgl knockout mouse myocardium (BMIPP SPECT/CT wash out rate); type: in vivo
# Procedure: Atgl (adipose-triglyceride lipase) knockout mice are known as non clinical models of TGCV. Atgl knockout mice (KO mice) deficient in the Atgl gene were each produced by a known method.
# The compound of the present invention was suspended in a 0.5% HPMC aqueous solution so that the dose of the same was 30 or 45 mg/kg/10 mL, and orally administered to 6 to 7-week-old male Atgl knockout mice on the day before and the day when the long chain fatty acid metabolizing ability was measured. On the day of measurement of long-chain fatty acid metabolizing ability, 14.6 MBq/mouse of iodine-123-8 methyl iodophenyl-pen-tadecanoic acid (BMIPP) was administered via the tail vein. At 1 hour and 4 hours after administration, the mice were imaged by single-photon emission computed tomography (SPECT)/CT under anesthesia, and the radioactivity of the administered BMIPP in the myocardium was measured. The metabolism of long-chain fatty acids in the myocardium was calculated as a wash out rate by the following formula.
# [2] = Metabolic stability test, rat; type: in vitro ADME; conditions: 30 minutes
# Crl:CD (SD) rats = assay: Influence on platelet count in SD rats; type: in vivo; conditions: for Platelet count: mean ± standard deviation; for effect on platelet count: within the dose range used for evaluation
# Procedure: The compound of the present invention was suspended in a 0.5% methylcellulose solution so as to have a dose of 50 to 600 mg/kg/day, and was orally repeatedly administered for 4 days to 6-week-old male Crl:CD (SD) rats under non-fasted conditions. On day 5 from the start of administration, blood was collected from the abdominal vena cava under anesthesia, and […]. A platelet count in plasma was evaluated with an automatic hemocytometer.
# recombinant human ACC1 = recombinant human ACC1 (Homo sapiens (Human), UniProt Q13085); assay: Measurement of inhibitory activity of human ACC1 (MALDI-TOF MS); type: biochemical; conditions: read-out: IC50 hACC1
# From the text: A cDNA encoding human ACC1 protein (1 amino acid residue to 2346 amino acid residues from the N-terminus) was cloned from a human liver cDNA library (BioChain Institute Inc.), myc tag and His-tag sequences were introduced at the 3′ end, and then inserted into pIEXBAC3 (Novagen). A recombinant baculovirus was produced in accordance with the protocol for Flash BACGOLD (Oxford Expression Technologies Ltd.), and Sf-9 cells were infected therewith to express human ACC1 protein. The recovered cells were crushed, filtered through a filter, and then subjected to Ni affinity chromatography and anion exchange chromatography. Fractions containing human ACC1 protein were collected to obtain recombinant human ACC1.
# The recombinant human ACC1 and the recombinant human ACC2 obtained from the above Preparation Examples were preincubated in an assay buffer (50 mM HEPES-KOH (pH 7.4), 10 mM magnesium chloride, 6 to 10 mM potassium citrate, 4 mM glutathione reduced form, and 1.5 mg/ml bovine serum albumin) for 1 hour. Then, 5 μL of the pre-incubated enzyme solution and 5 μL of a substrate solution (50 mM HEPES-KOH (pH 7.4), 1 mM ATP, 0.8 mM acetyl-CoA, and 25 to 50 mM potassium bicarbonate) were added to a 384-well microplate into which 0.2 μl of each of solutions of the compound of the present invention (DMSO had been dispensed, and the mixture was centrifuged and shaken, and then incubated in a wet box at room temperature for 1 to 3 hours. After incubation, the enzymatic reaction was stopped by addition of EDTA, and then the sample was co-crystallized with an α-cyano-4-hydroxy cinnamic acid (CHCA) matrix on a MALDI target plate, and measurement was performed in a reflector negative mode using a matrix-assisted laser desorption ionization-time-of-flight mass spectrometer (MALDI-TOF MS). Deprotonated ions of the substrate acetyl-CoA (AcCoA) and the reaction product malonyl-CoA (MalCoA) were detected, and the intensity of each signal was used to calculate a conversion rate to malonyl-CoA or succinyl-CoA, i.e., intensity of [MalCoA-H]—/(intensity of [MalCoA-H]-+intensity of [AcCoA.H].). […] The potassium citrate concentration in the assay buffer, the potassium bicarbonate concentration in the substrate solution, and the incubation time were adjusted within the above concentrations or reaction times for each lot of the enzyme to be used.
# C57BL/6JJcl mice = assay: Plasma triglyceride concentration in mice fed ultra-high fat, choline-deficient, methionine-lowered diet; type: in vivo; conditions: for Plasma triglyceride concentration: bid, mean ± standard error; for plasma triglyceride concentration versus vehicle-administered group: mice fed ultra-high fat, choline-deficient, methionine-lowered diet, repeated oral b.i.d.
# Procedure: Six-week-old male C57BL/6JJcl mice were fed an ultra-high fat, choline-deficient, methionine-lowered diet (60 kcal % fat content, using lard, choline-deficient, methionine-lowered (0.1%)), and at the same time, the compound of the present invention was suspended in a vehicle (0.5% methylcellulose aqueous solution) so as to have a dose of 3 to 45 mg/kg/10 mL, and orally repeatedly administered (b.i.d.) for 8 weeks. Blood was collected from the tail vein during the repeated administration period, and biochemical parameters in plasma were measured.
structure (smiles),measurement,setting,value
C[C@@H](COC1CCC(Oc2nc3c(F)cc(OC4CC4)cc3n2C)CC1)NC(N)=O (stereo partly shown) [Compound I-12],"Remaining amount of compound, Human",[1],83.3%
same,long chain fatty acid metabolizing ability in myocardium (wash out rate),"Atgl knockout mice; 30 mg/kg/10 mL oral, p=0.096, Welch's t test",tended to improve
same,"Remaining amount of compound, Rat",[2],85.5%
same,Platelet count,Crl:CD (SD) rats; 100 mg/kg/day oral for 4 days,987 ± 86
same,Platelet count,Crl:CD (SD) rats; 300 mg/kg/day oral for 4 days,988 ± 43
same,Platelet count,Crl:CD (SD) rats; 600 mg/kg/day oral for 4 days,1061 ± 85
same,effect on platelet count,Crl:CD (SD) rats,did not affect
same,IC50,recombinant human ACC1,6.9 µM
same,Plasma triglyceride concentration,"C57BL/6JJcl mice; 3 mg/kg, 2 weeks",32.9 ± 1.3 mg/dL
same,Plasma triglyceride concentration,"C57BL/6JJcl mice; 3 mg/kg, 4 weeks",22.4 ± 2.1 mg/dL
same,Plasma triglyceride concentration,"C57BL/6JJcl mice; 3 mg/kg, 7 weeks",27.2 ± 1.5 mg/dL
same,Plasma triglyceride concentration,"C57BL/6JJcl mice; 10 mg/kg, 2 weeks",30.4 ± 2.2 mg/dL
same,Plasma triglyceride concentration,"C57BL/6JJcl mice; 10 mg/kg, 4 weeks",21.5 ± 1.8 mg/dL
same,Plasma triglyceride concentration,"C57BL/6JJcl mice; 10 mg/kg, 7 weeks",22.1 ± 1.9 mg/dL
same,Plasma triglyceride concentration,"C57BL/6JJcl mice; 30 mg/kg, 2 weeks",23.1 ± 2.5 mg/dL
same,Plasma triglyceride concentration,"C57BL/6JJcl mice; 30 mg/kg, 4 weeks",11.1 ± 1.1 mg/dL
same,Plasma triglyceride concentration,"C57BL/6JJcl mice; 30 mg/kg, 7 weeks",16.2 ± 1.6 mg/dL
same,plasma triglyceride concentration versus vehicle-administered group,C57BL/6JJcl mice,lower than that in the vehicle-administered group
CC(=O)N[C@@H](C)CCC1OCC(Oc2nc3c(F)c(OC4CC4)ccc3n2C)CO1 (stereo partly shown) [Compound I-13],"Remaining amount of compound, Human",[1],95.4%
same,long-chain fatty acid metabolizing ability in myocardium (wash out rate),"Atgl knockout mice; 45 mg/kg/10 mL oral, p<0.05, Welch's t test",significant improving effect
same,"Remaining amount of compound, Rat",[2],87%
same,Platelet count,Crl:CD (SD) rats; 50 mg/kg/day oral for 4 days,1079 ± 73
same,Platelet count,Crl:CD (SD) rats; 100 mg/kg/day oral for 4 days,1048 ± 65
same,Platelet count,Crl:CD (SD) rats; 200 mg/kg/day oral for 4 days,1122 ± 87
same,effect on platelet count,Crl:CD (SD) rats,did not affect
same,IC50,recombinant human ACC1,0.91 µM
same,Plasma triglyceride concentration,"C57BL/6JJcl mice; 15 mg/kg, 0 weeks",61.6 ± 3.1 mg/dL
same,Plasma triglyceride concentration,"C57BL/6JJcl mice; 15 mg/kg, 1 week",23.7 ± 1.0 mg/dL
same,Plasma triglyceride concentration,"C57BL/6JJcl mice; 15 mg/kg, 3 weeks",19.8 ± 1.2 mg/dL
same,Plasma triglyceride concentration,"C57BL/6JJcl mice; 15 mg/kg, 5 weeks",19.0 ± 1.7 mg/dL
same,Plasma triglyceride concentration,"C57BL/6JJcl mice; 15 mg/kg, 7 weeks",18.8 ± 1.2 mg/dL
same,Plasma triglyceride concentration,"C57BL/6JJcl mice; 45 mg/kg, 0 weeks",63.6 ± 3.7 mg/dL
same,Plasma triglyceride concentration,"C57BL/6JJcl mice; 45 mg/kg, 1 week",22.4 ± 2.5 mg/dL
same,Plasma triglyceride concentration,"C57BL/6JJcl mice; 45 mg/kg, 3 weeks",18.9 ± 1.4 mg/dL
same,Plasma triglyceride concentration,"C57BL/6JJcl mice; 45 mg/kg, 5 weeks",16.5 ± 1.7 mg/dL
same,Plasma triglyceride concentration,"C57BL/6JJcl mice; 45 mg/kg, 7 weeks",15.1 ± 1.0 mg/dL
same,plasma triglyceride concentration versus vehicle-administered group,C57BL/6JJcl mice,lower than that in the vehicle-administered group
